Test results from publication PMC11079024, “Identification of a family of species-selective complex I inhibitors as potential anthelmintics” (Nature Communications, 2024).

Test system: anthelmintic/nematicide-resistant C. elegans mutant strains
Assay: microbe, parasite or virus in culture
Excerpt: In addition to the Caenorhabditis elegans wild-type N2 strain, this work included the following C. elegans strains: CB1003 (kynu-1(e1003) X); anthelmintic-resistant strains—CB3474 (ben-1(e1880) III), CB193 (unc-29(e193) I), HY496 (bre-1(ye4) IV), RB2119 (acr-23(ok2804) V), JD608 (avr-14(ad1302) I; avr-15(ad1051) V; glc-1 (pk54) V), NM1968 (slo-1(js379) V), RP2635 (mev-1(tr355) III); benzimidazole-resistant CRISPR strains—ECA882 (ben-1(ean64) III), ECA917 (ben-1(ean98) III), ECA1075 (ben-1(ean143) III), ECA1080 (ben-1(ean148) III). This work also featured several additional free-living nematode strains: C. briggsae strain AF16, P. pacificus strain PS312, and P. hermaphrodita strain B178. The four CRISPR-generated benzimidazole-resistant C. elegans mutants were generously provided by Prof. Erik Andersen (Johns Hopkins University); PS312 and B178 were generously provided by Prof. Peter Roy (University of Toronto); all other strains were obtained from the Caenorhabditis Genetics Center (CGC, University of Minnesota). All strains were cultured and propagated at 20 °C on NGM (nematode growth medium) agar plates seeded with E. coli OP50 (Stiernagle, 2006)[56].
Liquid development and viability assays were adapted from a previously established chemical screening protocol (Burns et al.)[24]. In brief, a saturated culture of E. coli HB101 was concentrated 2-fold in liquid NGM and 40 μL of this suspension was distributed to each well of a 96-well flat-bottom culture plate. 0.5 μL chemical solution (or DMSO alone) was added to each well (1% DMSO v/v) using either a multi-channel pipette or a pinning tool (V&P Scientific). L1 worms synchronized from an embryo preparation performed the day prior were diluted to a concentration of ~2 worms/μL in M9 buffer; 10 μL worm suspension was then added to each well. Culture plates were sealed with parafilm and placed in a plastic container lined with wet paper towels to prevent evaporation. Containers were then incubated for 6 days at 20 °C with shaking at 165 rpm. Following incubation, 300 μL M9 was added to each well to decrease the turbidity of the HB101-NGM suspension. Single images of each microplate well were then taken on a Nikon Ti Eclipse inverted microscope (Nikon NIS Elements AR). Images were processed using Python scripts to isolate worm-associated pixels from background. Scores of worm development and viability were determined as the sum of worm-associated pixels in each well. Development/viability scores for each well were divided by the development /viability scores for the corresponding DMSO controls, resulting in a relative viability value for each chemical. At least three biological replicates were performed for each dose-response experiment; relative viability values were averaged across replicates.
Supplementary Table 2. Sensitivity of anthelmintic/nematicide-resistant strains to Class A, B, and C
benzimidazole complex I inhibitors.
LC50s were estimated from fitted dose-
response curves; all dose response data are the mean of at least three biological replicates.
Supplementary Table 2. Davie et al.

[1] = CB3474 G104D (ben-1), 1 µM, score 0-1 relative to DMSO, values >1 set to 1
[2] = CB3474 G104D (ben-1), 2 µM, score 0-1 relative to DMSO, values >1 set to 1
[3] = CB3474 G104D (ben-1), 3.9 µM, score 0-1 relative to DMSO, values >1 set to 1
[4] = CB3474 G104D (ben-1), 15.6 µM, score 0-1 relative to DMSO, values >1 set to 1
[5] = CB3474 G104D (ben-1), 31.3 µM, score 0-1 relative to DMSO, values >1 set to 1
[6] = CB3474 G104D (ben-1), 62.5 µM, score 0-1 relative to DMSO, values >1 set to 1
[7] = ECA917 F200Y (ben-1), 1 µM, score 0-1 relative to DMSO, values >1 set to 1
[8] = ECA917 F200Y (ben-1), 2 µM, score 0-1 relative to DMSO, values >1 set to 1
[9] = ECA917 F200Y (ben-1), 3.9 µM, score 0-1 relative to DMSO, values >1 set to 1
[10] = ECA917 F200Y (ben-1), 15.6 µM, score 0-1 relative to DMSO, values >1 set to 1
[11] = ECA1075 F167Y (ben-1), 1 µM, score 0-1 relative to DMSO, values >1 set to 1
[12] = ECA1075 F167Y (ben-1), 2 µM, score 0-1 relative to DMSO, values >1 set to 1
[13] = ECA1075 F167Y (ben-1), 3.9 µM, score 0-1 relative to DMSO, values >1 set to 1
[14] = ECA1075 F167Y (ben-1), 15.6 µM, score 0-1 relative to DMSO, values >1 set to 1
[15] = ECA1080 E198A (ben-1), 1 µM, score 0-1 relative to DMSO, values >1 set to 1
[16] = ECA1080 E198A (ben-1), 2 µM, score 0-1 relative to DMSO, values >1 set to 1
[17] = ECA1080 E198A (ben-1), 3.9 µM, score 0-1 relative to DMSO, values >1 set to 1
[18] = ECA1080 E198A (ben-1), 15.6 µM, score 0-1 relative to DMSO, values >1 set to 1
[19] = ECA1080 E198A (ben-1), 31.3 µM, score 0-1 relative to DMSO, values >1 set to 1

Row | Compound | C. elegans L1 relative development & viability [1] | C. elegans L1 relative development & viability [2] | C. elegans L1 relative development & viability [3] | C. elegans L1 relative development & viability [4] | C. elegans L1 relative development & viability [5] | C. elegans L1 relative development & viability [6] | C. elegans L1 relative development & viability [7] | C. elegans L1 relative development & viability [8] | C. elegans L1 relative development & viability [9] | C. elegans L1 relative development & viability [10] | C. elegans L1 relative development & viability [11] | C. elegans L1 relative development & viability [12] | C. elegans L1 relative development & viability [13] | C. elegans L1 relative development & viability [14] | C. elegans L1 relative development & viability [15] | C. elegans L1 relative development & viability [16] | C. elegans L1 relative development & viability [17] | C. elegans L1 relative development & viability [18] | C. elegans L1 relative development & viability [19] | also measured
1 | c1ccc2[nH]c(-c3cscn3)nc2c1 [Thiabendazole] | 1.000 | 1.000 | 1.000 | 1.000 | 1.000 | 1.000 | 1.000 | 1.000 | 1.000 | 1.000 | 1.000 | 1.000 | 1.000 | 1.000 | 1.000 | 1.000 | 1.000 | 1.000 | 1.000 | C. elegans L1 relative development & viability (CB3474 G104D (ben-1), 125 µM, score 0-1 relative to DMSO, values >1 set to 1): 1.000; C. elegans L1 relative development & viability (CB3474 G104D (ben-1), 250 µM, score 0-1 relative to DMSO, values >1 set to 1): 1.000; C. elegans L1 relative development & viability (CB3474 G104D (ben-1), 500 µM, […]): 0.035; C. elegans L1 relative development & viability (ECA917 F200Y (ben-1), 31.3 µM, score 0-1 relative to DMSO, values >1 set to 1): 1.000; C. elegans L1 relative development & viability (ECA917 F200Y (ben-1), 62.5 µM, score 0-1 relative to DMSO, values >1 set to 1): 1.000; C. elegans L1 relative development & viability (ECA917 F200Y (ben-1), 125 µM, score 0-1 relative to DMSO, values >1 set to 1): 1.000; C. elegans L1 relative development & viability (ECA917 F200Y (ben-1), 250 µM, score 0-1 relative to DMSO, values >1 set to 1): 1.000; C. elegans L1 relative development & viability (ECA917 F200Y (ben-1), 500 µM, […]): 0.056; C. elegans L1 relative development & viability (ECA1075 F167Y (ben-1), 31.3 µM, score 0-1 relative to DMSO, values >1 set to 1): 1.000; C. elegans L1 relative development & viability (ECA1075 F167Y (ben-1), 62.5 µM, score 0-1 relative to DMSO, values >1 set to 1): 1.000; C. elegans L1 relative development & viability (ECA1075 F167Y (ben-1), 125 µM, score 0-1 relative to DMSO, values >1 set to 1): 1.000; C. elegans L1 relative development & viability (ECA1075 F167Y (ben-1), 250 µM, score 0-1 relative to DMSO, values >1 set to 1): 1.000; C. elegans L1 relative development & viability (ECA1075 F167Y (ben-1), 500 µM, […]): 0.028; C. elegans L1 relative development & viability (ECA1080 E198A (ben-1), 62.5 µM, score 0-1 relative to DMSO, values >1 set to 1): 1.000; C. elegans L1 relative development & viability (ECA1080 E198A (ben-1), 125 µM, score 0-1 relative to DMSO, values >1 set to 1): 1.000; C. elegans L1 relative development & viability (ECA1080 E198A (ben-1), 250 µM, score 0-1 relative to DMSO, values >1 set to 1): 1.000; C. elegans L1 relative development & viability (ECA1080 E198A (ben-1), 500 µM, […]): 0.041
2 | COC(=O)Nc1nc2ccc(C(=O)c3ccccc3)cc2[nH]1 [mebendazole, reference compound] | 1.000 | 1.000 | 1.000 | 1.000 | 1.000 | 1.000 | 1.000 | 1.000 | 1.000 | 1.000 | 1.000 | 1.000 | 1.000 | 1.000 | 1.000 | 1.000 | 1.000 | 1.000 | 1.000 | C. elegans L1 relative development & viability (CB3474 G104D (ben-1), 125 µM, […]): 0.918; C. elegans L1 relative development & viability (CB3474 G104D (ben-1), 250 µM, […]): 0.816; C. elegans L1 relative development & viability (ECA917 F200Y (ben-1), 31.3 µM, […]): 0.958; C. elegans L1 relative development & viability (ECA917 F200Y (ben-1), 62.5 µM, […]): 0.687; C. elegans L1 relative development & viability (ECA917 F200Y (ben-1), 125 µM, […]): 0.515; C. elegans L1 relative development & viability (ECA917 F200Y (ben-1), 250 µM, […]): 0.575; C. elegans L1 relative development & viability (ECA1075 F167Y (ben-1), 31.3 µM, […]): 0.936; C. elegans L1 relative development & viability (ECA1075 F167Y (ben-1), 62.5 µM, […]): 0.436; C. elegans L1 relative development & viability (ECA1075 F167Y (ben-1), 125 µM, […]): 0.502; C. elegans L1 relative development & viability (ECA1075 F167Y (ben-1), 250 µM, […]): 0.324; C. elegans L1 relative development & viability (ECA1080 E198A (ben-1), 62.5 µM, […]): 0.746; C. elegans L1 relative development & viability (ECA1080 E198A (ben-1), 125 µM, […]): 0.386; C. elegans L1 relative development & viability (ECA1080 E198A (ben-1), 250 µM, […]): 0.470
